Among the data in US8536351B2, “2-aryl-5-heterocyclyl-cyclohexane-1,3,dione compounds and their use as herbicides” (Syngenta Crop Protection LLC, priority 2007, dated 2013) are pest or weed control values, retold here.

Holding throughout (assay type): in vivo
The test system of assay [1] is Digitaria sanguinalis (DIGSA). Put plainly: Post-emergence activity, glasshouse pot test (100=total damage to plant; 0=no damage to plant). As to conditions: rate 500 g/ha, evaluated 14 or 15 days after spraying. On the procedure: (§1) Monocotyledonous and dicotyledonous test plants were sown in standard soil in pots. After cultivation for one day (pre-emergence) or after 10 days cultivation (post-emergence) under controlled conditions in a glasshouse, the plants were sprayed with an aqueous spray solution derived from the formulation of the technical active ingredient in 0.6 ml acetone and 45 ml formulation solution containing 10.6% Emulsogen EL (Registry number 61791-12-6), 42.2% N-methyl pyrrolidone, 42.2% dipropylene glycol monomethyl ether (Registry number 34590-94-8) and 0.2% X-77 (Registry number 11097-66-8). The test plants were then grown in a greenhouse under optimum conditions until, 14 or 15 days later for post-emergence and 19, 20 or 21 days for pre-emergence, the test was evaluated (100=total damage to plant; 0=no damage to plant). Alopecurus myosuroides (ALOMY), Avena fatua (AVEFA), Lolium perenne (LOLPE), Setaria faberi (SETFA), Digitaria sanguinalis (DIGSA), Echinochloa crus-galli (ECHCG) Post-Emergence Activity

The subject of assay [2] is Echinochloa crus-galli (ECHCG). The description is as above. Conditions: rate 500 g/ha, evaluated 14 or 15 days after spraying. The method, then: as §1
Assay [3] concerns Lolium perenne (LOLPE). Described as above. As to conditions: 336 h, rate 500 g/ha, evaluated 14 or 15 days after spraying. The method, then:
as §1

Assay [4] deals with Setaria faberi (SETFA). The description is as above. As to conditions: rate 500 g/ha, evaluated 14 or 15 days after spraying. The method, then:
as §1

Assay [5] has as its system Alopecurus myosuroides (ALOMY). Described as above. Conditions: 336 h, rate 500 g/ha, evaluated 14 or 15 days after spraying. On the procedure: as §1
For assay [6], the system named is Avena fatua (AVEFA). The description is as above. As to conditions: 336 h, rate 500 g/ha, evaluated 14 or 15 days after spraying. The method, then: as §1
The test system of assay [7] is Digitaria sanguinalis (DIGSA). Put plainly: Pre-emergence activity, glasshouse pot test (100=total damage to plant; 0=no damage to plant). Conditions: rate 500 g/ha, evaluated 19, 20 or 21 days after spraying. The method, then:
as §1, with “Pre-Emergence” for “Post-Emergence”

The test system of assay [8] is Echinochloa crus-galli (ECHCG). Described as above. As to conditions: rate 500 g/ha, evaluated 19, 20 or 21 days after spraying. On the procedure:
as §1, with “Pre-Emergence” for “Post-Emergence”

The test system of assay [9] is Lolium perenne (LOLPE). The assay is described as above. As to conditions: rate 500 g/ha, evaluated 19, 20 or 21 days after spraying. On the procedure:
as §1, with “Pre-Emergence” for “Post-Emergence”

The subject of assay [10] is Setaria faberi (SETFA). Described as above. As to conditions: rate 500 g/ha, evaluated 19, 20 or 21 days after spraying. On the procedure: as §1, with “Pre-Emergence” for “Post-Emergence”
The subject of assay [11] is Alopecurus myosuroides (ALOMY). The description is as above. Conditions: rate 500 g/ha, evaluated 19, 20 or 21 days after spraying. The method, then:
as §1, with “Pre-Emergence” for “Post-Emergence”

The test system of assay [12] is Avena fatua (AVEFA). Described as above. As to conditions: rate 500 g/ha, evaluated 19, 20 or 21 days after spraying. The method, then: as §1, with “Pre-Emergence” for “Post-Emergence”

For orientation: pest or weed control means how far the test organism was held down. A higher pest or weed control goes with strong suppression. For `Cc1ccc(-c2ccc(Cl)cc2)cc1C1=C(O)CC(C2CCOCC2)CC1=O` (stereo not drawn) [Compound T9], the pest or weed control at 500 g/ha in assay [1] amounted to 90%; in assay [2], 100%; in the assay on Lolium perenne (LOLPE) [3], 100%; in the assay on Setaria faberi (SETFA) [4] it was 80%; in assay [5], 80%; in the assay with Avena fatua (AVEFA) [6] it was 70%. The pest or weed control at 500 g/ha in assay [7] was determined as 80%; in [8] it was 100%; with Lolium perenne (LOLPE) [9] it was 100%; with Setaria faberi (SETFA) [10] it was 100%; in assay [11], 60%; with Avena fatua (AVEFA) [12], 60%.
In the case of `CCc1cc(C)cc(C)c1C1=C(O)CC(C2CCOC2)CC1=O` (stereo not drawn) [Compound T11], the pest or weed control at 500 g/ha was 100% in assay [1]; 100% in assay [2]; 90% with Lolium perenne (LOLPE) [3]; 100% in the assay on Setaria faberi (SETFA) [4]; 90% in [5]; 90% in the assay with Avena fatua (AVEFA) [6]. For the same compound, the pest or weed control at 500 g/ha came out at 100% in assay [7]; 100% in assay [8]; 80% with Lolium perenne (LOLPE) [9]; 100% in the assay on Setaria faberi (SETFA) [10]; 80% in assay [11]; 70% in the assay on Avena fatua (AVEFA) [12].
Turning to `CCc1cc(C)cc(C)c1C1=C(O)CC(C2CCOCC2)CC1=O` (stereo not drawn) [Compound T12], the pest or weed control at 500 g/ha worked out at 100% in assay [1]; 100% in [2]; 90% in the assay on Lolium perenne (LOLPE) [3]; 100% in the assay with Setaria faberi (SETFA) [4]; 90% in assay [5]; 90% with Avena fatua (AVEFA) [6]. Besides, the pest or weed control at 500 g/ha in [7] amounted to 100%; in [8], 100%; in the assay on Lolium perenne (LOLPE) [9] it was 100%; with Setaria faberi (SETFA) [10], 100%; in assay [11] it was 90%; in the assay on Avena fatua (AVEFA) [12] it was 90%.
In the case of `CCc1cc(C)cc(CC)c1C1=C(O)CC(C2CCCSC2)CC1=O` (stereo not drawn) [Compound T13], the pest or weed control at 500 g/ha turned out to be 90% in [1]; 90% in assay [2]; 100% with Lolium perenne (LOLPE) [3]; 100% in the assay on Setaria faberi (SETFA) [4]; 100% in [5]; 100% with Avena fatua (AVEFA) [6]. Moreover, the pest or weed control at 500 g/ha is 100% in [7]; 100% in [8]; 100% in the assay on Lolium perenne (LOLPE) [9]; 100% with Setaria faberi (SETFA) [10]; 90% in assay [11]; 80% with Avena fatua (AVEFA) [12].
Turning to `Cc1cc(C)c(C2=C(O)CC(C3CCCSC3)CC2=O)c(C)c1` (stereo not drawn) [Compound T14], the pest or weed control at 500 g/ha in assay [1] came to 90%; in assay [2] it was 80%; in the assay on Lolium perenne (LOLPE) [3] it was 60%; with Setaria faberi (SETFA) [4], 90%; in assay [5], 70%; in the assay with Avena fatua (AVEFA) [6], 30%. The pest or weed control at 500 g/ha came out at 90% in assay [7]; 70% in assay [8]; 70% with Lolium perenne (LOLPE) [9]; 90% in the assay with Setaria faberi (SETFA) [10]; 60% in [11]; 20% in the assay with Avena fatua (AVEFA) [12].
Regarding `Cc1cc(C)c(C2=C(O)CC(C3CCSCC3)CC2=O)c(C)c1` (stereo not drawn) [Compound T15], the pest or weed control at 500 g/ha in assay [1] came out at 80%; in assay [2] it was 70%; in the assay with Lolium perenne (LOLPE) [3], 60%; in the assay on Setaria faberi (SETFA) [4], 90%; in assay [5], 60%; with Avena fatua (AVEFA) [6] it was 20%. Also, the pest or weed control at 500 g/ha in [7] was 70%; in assay [8], 20%; in the assay on Lolium perenne (LOLPE) [9], 80%; in the assay with Setaria faberi (SETFA) [10] it was 90%; in assay [11] it was 60%; with Avena fatua (AVEFA) [12], 60%.
Turning to `CCc1cc(C)cc(C)c1C1=C(O)CC(C2CCCSC2)CC1=O` (stereo not drawn) [Compound T16], the pest or weed control at 500 g/ha in assay [1] came to 100%; in assay [2] it was 90%; in the assay with Lolium perenne (LOLPE) [3] it was 90%; in the assay on Setaria faberi (SETFA) [4], 100%; in assay [5], 100%; with Avena fatua (AVEFA) [6], 80%. Further, the pest or weed control at 500 g/ha amounted to 100% in assay [7]; 100% in assay [8]; 100% with Lolium perenne (LOLPE) [9]; 100% in the assay on Setaria faberi (SETFA) [10]; 0% in [11]; 100% in the assay with Avena fatua (AVEFA) [12].
On to `Cc1cc(C)c(C2=C(O)CC(C3CCS(=O)(=O)CC3)CC2=O)c(C)c1` (stereo not drawn) [Compound T17], for which the pest or weed control at 500 g/ha in assay [1] is 90%; in assay [2], 90%; in the assay with Lolium perenne (LOLPE) [3] it was 0%; in the assay with Setaria faberi (SETFA) [4] it was 90%; in assay [5], 20%; in the assay on Avena fatua (AVEFA) [6], 20%. Also, the pest or weed control at 500 g/ha is 60% in assay [7]; 60% in assay [8]; 0% in the assay with Lolium perenne (LOLPE) [9]; 50% in the assay with Setaria faberi (SETFA) [10]; 20% in assay [11]; 70% in the assay with Avena fatua (AVEFA) [12].
Take `CCc1cc(C)cc(CC)c1C1=C(O)CC(C2CCSCC2)CC1=O` (stereo not drawn) [Compound T18]: the pest or weed control at 500 g/ha is 100% in assay [1]; 70% in [2]; 70% in the assay with Lolium perenne (LOLPE) [3]; 100% in the assay on Setaria faberi (SETFA) [4]; 90% in assay [5]; 100% in the assay on Avena fatua (AVEFA) [6]. The pest or weed control at 500 g/ha (in assay [7]; in [8]; with Lolium perenne (LOLPE) [9]; with Setaria faberi (SETFA) [10]; in assay [11]; in the assay with Avena fatua (AVEFA) [12]) was 100% throughout.
On to `CCc1cc(C)cc(CC)c1C1=C(O)CC(C2CCCS(=O)(=O)C2)CC1=O` (stereo not drawn) [Compound T19], for which the pest or weed control at 500 g/ha came out at 100% in assay [1]; 100% in assay [2]; 80% with Lolium perenne (LOLPE) [3]; 100% with Setaria faberi (SETFA) [4]; 80% in assay [5]; 90% in the assay on Avena fatua (AVEFA) [6]. Besides, the pest or weed control at 500 g/ha in assay [7] came to 100%; in assay [8], 100%; with Lolium perenne (LOLPE) [9] it was 100%; with Setaria faberi (SETFA) [10], 100%; in [11] it was 100%; in the assay with Avena fatua (AVEFA) [12], 90%.
